Results from patent publication US7601754B2, “Flavonoid compounds as therapeutic antioxidants” (Antoxis Limited, priority 2002, dated 2009).
Where “and” joins values, the source holds several entries; their conditions need not be identical. Identical values can stand only once.

What was measured:
[1] = system: rat liver microsomes from vitamin E-deficient rats; assay: Inhibition of TBARS production in rat liver microsomes from vitamin E-deficient rats; assay type: biochemical; conditions: for TBARS production (Mean): after 20 minutes incubation with Fe(II)-ADP/ascorbate, normalised to a tocopherol reading of 20, 30 minutes pre-incubation, higher reading = lower protection; for membrane protection against TBARS production (in words): over the 20 minute oxidation period
Experimental: Inhibition of TBARS production in rat liver microsomes from vitamin E-deficient rats by pre-incubation with target antioxidant and related compounds. Microsomes are subcellular fractions containing membrane fragments. In vitamin E-deficient rats, microsomes are especially prone to oxidative free radical damage. This can be quantified in terms of the production of thiobarbituric acid reactive substances (TBARS) which result from radical-mediated destruction of the polyunsaturated fatty acid constituents. Consequently, this is a useful biological model to determine the efficacy of phytochemicals as antioxidant membrane protectants. Vitamin E-deficient microsomal suspensions were incubated for 30 minutes with one of myricetin, sample A, sample B, sample C (as shown below) or d-alpha-tocopherol, or with a compound 9c, 9d, 9e, 9e*, 9f, 9g, 9g*, 9h, 9i* or 9j (prepared as described above in Examples 1 to 10). […] TBARS production was then measured by HPLC.

[2] = Kinetic measurements: stopped-flow ESR, reduction of galvinoxyl radical; assay type: physicochemical; conditions: for Second order rate constants (k2) for the reduction of galvinoxyl radical / reactivity with galvinoxyl (in words): ethanol; for Second order rate constants (k2) for the reduction of galvinoxyl radical: 20° C.±2° C., flavonoid 0.2 mM + galvinoxyl 0.2 mM, unit printed only in b437; for reactivity with galvinoxyl (in words): kinetics of reduction; for decrease in rate of reaction with galvinoxyl relative to quercetin: fold decrease, versus quercetin
Experimental: (§1) Within a biological system where a number of polyphenols may be present at similar concentrations, antioxidant efficacy may be predominantly governed by reaction kinetics rather than stoichiornetry. Consequently, the antioxidant potential of thirteen flavonoids and vitamin E were assessed and their kinetic and stochiometric reduction of a synthetic radical using stopped-flow electron spin resonance (ESR) spectroscopy has been compared. The radical used was galvinoxyl (Galv-O°), (2,6-di-tert-butyl-α-(3,5-di-tert-butyl-4-oxo-2,5-cyclohexadien-1-ylidene)-p-tolyloxy) shown below:
Galv-O°+Phenol-OH≈Galv-OH+phenol-O°
The process is governed by the O—H bond dissociation enthalpy of the donor.
Ethanolic solutions of flavonoid (0.2 mM) and galvinoxyl (0.2 mM) were de-oxygenated under a stream of nitrogen gas. Aliquots (6 ml) were transferred to Hamilton gas-tight syringes (10 ml) coupled to a pneumatic ram and connected to a two-stream ESR quartz flow-cell. In situ reaction at 20° C.±2° C. between the flavonoid and galvinoxyl was initiated by rapidly evacuating the syringes. […] Decay curves were obtained by operating in timesweep mode with the static field set at the resonance maximum of the galvinoxyl signal.

[3] = Stoichiometric measurements: ESR, reduction of excess galvinoxyl radical; assay type: physicochemical; conditions: galvinoxyl radicals reduced per molecule, ethanol, flavonoid 0.1 mM + galvinoxyl 0.5 mM, 5 minutes from mixing
Experimental: as §1
Ethanolic solutions of flavonoids (0.1 mM) were prepared. Aliquots (3 ml) of an ethanolic galvinoxyl solution (0.5 mM) were mixed with an equal volume of flavonoid solution then transferred to an ESR quartz cell. The spectra and reaction stoichiometry were evaluated. In brief, the spectra of the unreacted galvinoxyl were obtained 5 minutes from mixing, by which time equilibration was complete. The galvinoxyl concentrations remaining were calculated by double integration of the signal and comparing with the control experiment where ethanol was added to the galvinoxyl solution instead of flavonoid solution.
The stoichiometry of the reaction of these compounds with the galvinoxyl free radical was determined by adding the flavonoid, or vitamin E, to an excess of the radical and allowing the reaction to proceed to the endpoint.

Solubility in octanol = assay type: physicochemical

Molecule	TBARS production (Mean) [1]	Second order rate constants (k2) for the reduction of galvinoxyl radical [2]	Reaction Stoichiometry for the reduction of galvinoxyl radical [3]	also measured
O=c1c(O)c(-c2cc(O)c(O)c(O)c2)oc2cc(O)ccc12 [Control A]	158.348	–	–	–
CCCCCCCCCc1cccc2c(=O)c(O)c(-c3cc(O)c(O)cc3O)oc12 [compound 14]	104.4307	–	–	–
COc1ccc([C@@H]2CC(=O)c3c(O)cc(O)cc3O2)cc1O [Hesperitin]	–	6 ± 0.5 mol^−1 dm^3 s^−1	0.20 ± 0.02	reactivity with galvinoxyl (in words) [2]: little reactivity
CCCCCCCCCCc1ccc2oc(-c3cc(O)c(O)c(O)c3)c(O)c(=O)c2c1 [compound 11g, 6-Decyl-3-hydroxy-2-(3,4,5-trihydroxy-phenyl)-chromen-4-one]	81.82	–	–	–
CCCCCCCCCCc1ccc2c(=O)c(O)c(-c3cc(O)c(O)cc3O)oc2c1 [compound 13g, 3,2′,4′,5′-tetrahydroxy-7-decyl-flavone]	20.1401	–	–	membrane protection against TBARS production (in words) [1]: good membrane protection
O=c1c(O)c(-c2cc(O)c(O)c(O)c2)oc2ccccc12 [Control B]	236.525 and 236.5249	–	–	antioxidant activity by ESR (in words) ([2]; ESR, kinetic or stoichiometric not stated): retains potent antioxidant activity; membrane protection against TBARS production (in words) [1]: does not give rise to significant membrane protective effects; solubility in octanol (in words) (Solubility in octanol): very soluble in octanol
O=c1c(O)c(-c2cc(O)c(O)cc2O)oc2ccccc12 [Control C]	186.6221	–	–	–
O=c1c(O)c(-c2cc(O)c(O)c(O)c2)oc2cc(O)cc(O)c12 [Myricetin]	147.6 and 147.6306	14463 ± 1767 mol^−1 dm^3 s^−1	4.08 ± 0.01	reactivity with galvinoxyl (in words) [2]: fastest; Reaction Stoichiometry for the reduction of galvinoxyl radical ([3]; listed as myricetin): 4.1; membrane protection against TBARS production (in words) [1]: almost no protection
CCCCCCCCCCCCc1ccc2c(=O)c(O)c(-c3cc(O)c(O)c(O)c3)oc2c1 [compound 9h, 3-Hydroxy-2-(3,4,5-trihydroxy-phenyl)-7-dodecyl-chromen-4-one]	62.1021	–	–	–
O=c1c(O)c(-c2ccccc2O)oc2cc(O)cc(O)c12 [Datiscetin]	–	22 ± 2 mol^−1 dm^3 s^−1	1.74 ± 0.02	Second order rate constants (k2) for the reduction of galvinoxyl radical ([2]; listed as datiscetin): 22 mol^−1 dm^3 s^−1; reduction in rate constant relative to kaempferol ([2]; fold reduction, versus kaempferol): 56 fold; Reaction Stoichiometry for the reduction of galvinoxyl radical ([3]; listed as datiscetin): ~1.8
O=c1c(O)c(-c2ccc(O)cc2O)oc2cc(O)cc(O)c12 [Morin]	–	10134 ± 459 mol^−1 dm^3 s^−1	1.83 ± 0.01	Second order rate constants (k2) for the reduction of galvinoxyl radical ([2]; listed as morin): 10134 mol^−1 dm^3 s^−1; reactivity with galvinoxyl (in words) [2]: fastest; increase in rate relative to kaempferol ([2]; fold increase, versus kaempferol): 8 fold; Reaction Stoichiometry for the reduction of galvinoxyl radical ([3]; listed as morin): 1.8
O=c1c(O)c(-c2ccccc2)oc2cc(O)cc(O)c12 [Galangin]	–	18 ± 1 mol^−1 dm^3 s^−1	1.01 ± 0.03	reactivity with galvinoxyl (in words) [2]: reacted only very slowly
CCCCCCCCCCCCCCCCCCc1ccc2c(=O)c(O)c(-c3cc(O)c(O)c(O)c3)oc2c1 [compound 9j, 3-Hydroxy-7-octadecyl-2-(3,4,5-trihydroxy-phenyl)-chromen-4-one]	107.849	–	–	–
CCCCCCCCc1ccc2c(=O)c(O)c(-c3cc(O)c(O)c(O)c3)oc2c1 [9f, 7-Octyl-3-hydroxy-2-(3,4,5-trihydroxy-phenyl)-chromen-4-one]	46.1879	–	–	–
CC(C)CCCC(C)CCCC(C)CCc1ccc2c(=O)c(O)c(-c3cc(O)c(O)c(O)c3)oc2c1 (stereo not shown) [compound 9i*, 3-Hydroxy-2-(3,4,5-trihydroxy-phenyl)-7-(3,7,11-trimethyl-dodecyl)-chromen-4-one]	32.9769	–	–	–
Cc1c(C)c2c(c(C)c1O)CC[C@@](C)(CCC[C@H](C)CCC[C@H](C)CCCC(C)C)O2 [Vitamin E, d-(2R,4′R,8′R)-α-Tocopherol]	–	524 ± 48 mol^−1 dm^3 s^−1	2.14 ± 0.12	TBARS production (Mean) ([1]; listed as da-toc): 19.9996 and 20
Catechin	–	1574 ± 79 mol^−1 dm^3 s^−1	2.96 ± 0.01	–
CCCCc1ccc2c(=O)c(O)c(-c3cc(O)c(O)c(O)c3)oc2c1 [9d, 7-Butyl-3-hydroxy-2-(3,4,5-trihydroxy-phenyl)-chromen-4-one]	121.743	–	–	–
O=C1c2c(O)cc(O)cc2O[C@H](c2ccc(O)c(O)c2)[C@H]1O (racemic) [Taxifolin]	–	337 ± 32 mol^−1 dm^3 s^−1	2.82 ± 0.05	decrease in rate of reaction with galvinoxyl relative to quercetin [2]: 7 fold; reduction in rate compared with catechin ([2]; fold reduction, versus catechin): 5 fold; Reaction Stoichiometry for the reduction of galvinoxyl radical ([3]; listed as taxifolin): 2.8
COc1ccc(-c2oc3cc(O)cc(O)c3c(=O)c2O)cc1O [Tamarixetin]	–	165 ± 20 mol^−1 dm^3 s^−1	1.14 ± 0.03	decrease in rate of reaction with galvinoxyl relative to quercetin [2]: 15 fold
COc1cc(-c2oc3cc(O)cc(O)c3c(=O)c2O)cc(OC)c1OC [Tri-Ome-Myricetin, myricetin-3′,4′,5′-trimethylether]	–	74 ± 14 mol^−1 dm^3 s^−1	1.06 ± 0.02	–
O=c1cc(-c2ccc(O)c(O)c2)oc2cc(O)cc(O)c12 [Luteolin]	–	1212 ± 45 mol^−1 dm^3 s^−1	3.24 ± 0.01	–
CCc1ccc2c(=O)c(O)c(-c3cc(O)c(O)c(O)c3)oc2c1 [compound 9c, 7-Ethyl-3-hydroxy-2-(3,4,5-trihydroxy-phenyl)-chromen-4-one]	117.461	–	–	–
O=c1c(O)c(-c2ccc(O)c(O)c2)oc2cc(O)ccc12 [Fisetin]	–	1623 ± 199 mol^−1 dm^3 s^−1	3.68 ± 0.03	–
CCCCCCCCc1cc2c(=O)c(O)c(-c3cc(O)c(O)c(O)c3)oc2cc1CC [compound 12, 7-Ethyl-3-hydroxy-6-octyl-2-(3,4,5-trihydroxy-phenyl)-chromen-4-one]	53.98	–	–	–
O=c1c(O)c(-c2ccc(O)c(O)c2O)oc2ccccc12 [Control D]	172.0899	–	–	–
O=c1c(O)c(-c2ccc(O)c(O)c2)oc2cc(O)cc(O)c12 [Quercetin]	–	2383 ± 258 mol^−1 dm^3 s^−1	3.27 ± 0.04	change of rate constant compared with luteolin (in words) ([2]; versus luteolin): doubling; Reaction Stoichiometry for the reduction of galvinoxyl radical ([3]; listed as quercetin): 3.3
